Laboratory results from ChEMBL document CHEMBL4118267, “Access to new highly potent antileukemia, antiviral and antimalarial agents via hybridization of natural products (homo)egonol, thymoquinone and artemisinin” (Bioorg Med Chem, 2018).

What was measured:
ADR5000 cell line [1] = assay: Cytotoxicity against human CEM/ADR5000 cells over-expressing P-gp assessed as reduction in cell viability after 72 hrs by resazurin dye based assay; format: functional
CCRF-CEM = assay: Cytotoxicity against human CCRF-CEM cells assessed as reduction in cell viability after 72 hrs by resazurin dye based assay; format: functional
Human betaherpesvirus 5 [2] = assay: Potency index, ratio of gancyclovir EC50 to compound EC50 for GFP-fused Human cytomegalovirus AD169 infected in primary HFF; format: functional
Human betaherpesvirus 5 [3] = assay: Antiviral activity against GFP-fused Human cytomegalovirus AD169 infected in primary HFF; format: functional, organism-based; details: Human betaherpesvirus 5, AD169, HFF
ADR5000 cell line [4] = assay: Potency index, ratio of doxorubicin EC50 to compound EC50 for human CEM/ADR5000 cells over-expressing P-gp; format: functional
Plasmodium falciparum [5] = assay: Antimalarial activity against Plasmodium falciparum 3D7 infected in human erythrocytes after 72 hrs by SYBR green dye fluorescence assay; format: functional, organism-based; details: 3D7, 72 h
Plasmodium falciparum [6] = assay: Potency index, ratio of artesunic acid EC50 to compound EC50 for Plasmodium falciparum 3D7 infected in human erythrocytes; format: functional
[7] = Homo sapiens, ADR5000, 72 h, read-out: EC50
[8] = Homo sapiens, CCRF-CEM, 72 h, read-out: EC50

| SMILES | EC50 (ADR5000 cell line [1]; [7]) [nM] | EC50 (CCRF-CEM; [8]) [nM] | Ratio EC50 (Human betaherpesvirus 5 [2]) | EC50 (Human betaherpesvirus 5 [3]) [nM] | Ratio EC50 (ADR5000 cell line [4]) | EC50 (Plasmodium falciparum [5]) [nM] | Ratio EC50 (Plasmodium falciparum [6]) | EC50 (ADR5000 cell line [1]; adr5000) | EC50 (CCRF-CEM; ccrf-cem) |
| --- | --- | --- | --- | --- | --- | --- | --- | --- | --- |
| COc1ccc(-c2cc3cc(CCCO[C@H]4O[C@@H]5O[C@@]6(C)CC[C@H]7[C@H](C)CC[C@@H]([C@H]4C)[C@@]57OO6)cc(OC)c3o2)cc1OC | 630 | 72 | 20 | 130 | <=104 | 6.5 |  |  |  |
| Nc1nc2c(ncn2COC(CO)CO)c(=O)[nH]1 [GANCICLOVIR] |  |  |  | 2600 |  |  |  |  |  |
| C[C@@H]1CC[C@H]2[C@@H](C)C(=O)O[C@@H]3O[C@@]4(C)CC[C@@H]1[C@]32OO4 [ARTEMISININ] | 26900 | 36900 |  |  |  |  |  |  |  |
| COc1cc(CCCO)cc2cc(-c3ccc4c(c3)OCO4)oc12 [EGONOL] | 26800 | 24700 |  | 2380 |  | 7500 |  |  |  |
| COc1cc(CCCO[C@H]2O[C@@H]3O[C@@]4(C)CC[C@H]5[C@H](C)CC[C@@H]([C@H]2C)[C@@]35OO4)cc2cc(-c3ccc4c(c3)OCO4)oc12 | 400 | 99 |  | 170 | <=104 | 28.3 |  |  |  |
| C[C@H]1[C@H](OC(=O)CCC(=O)O)O[C@@H]2O[C@@]3(C)CC[C@H]4[C@H](C)CC[C@@H]1[C@@]24OO3 [ARTESUNATE] | 189 | 69 |  | 5410 |  | 9.7 |  |  |  |
| COc1cccc2c1C(=O)c1c(O)c3c(c(O)c1C2=O)C[C@@](O)(C(=O)CO)C[C@@H]3O[C@H]1C[C@H](N)[C@H](O)[C@H](C)O1 [DOXORUBICIN] | 41500 | 15 |  |  |  |  |  |  |  |
| COc1cc(CCCOC(=O)CCCc2ccc(N(CCCl)CCCl)cc2)cc2cc(-c3ccc4c(c3)OCO4)oc12 |  |  |  | 2900 |  | 23200 |  |  |  |
| C[C@H]1[C@H](OC(=O)CCC(=O)OCC#CCOC(=O)CCC(=O)O[C@@H]2O[C@@H]3O[C@@]4(C)CC[C@H]5[C@H](C)CC[C@@H]([C@H]2C)[C@@]35OO4)O[C@@H]2O[C@@]3(C)CC[C@H]4[C@H](C)CC[C@@H]1[C@@]24OO3 |  |  | 6 | 940 |  | 3.8 | 2 |  |  |
| C[C@H]1[C@@H](O)O[C@@H]2O[C@@]3(C)CC[C@H]4[C@H](C)CC[C@@H]1[C@@]24OO3 [ARTENIMOL] | 265 | 85 |  | > 10000 |  | 2.4 |  |  |  |
| COc1cc(CCCOC(=O)CCC(=O)O[C@@H]2O[C@@H]3O[C@@]4(C)CC[C@H]5[C@H](C)CC[C@@H]([C@H]2C)[C@@]35OO4)cc2cc(-c3ccc4c(c3)OCO4)oc12 | 1120 | 180 |  | 870 | <=104 |  |  |  |  |
| CCN(CC)CCCC(C)Nc1ccnc2cc(Cl)ccc12 (stereo unspecified) [CHLOROQUINE] |  |  |  |  |  | 9.8 |  |  |  |
| COc1ccc(-c2cc3cc(CCCO)cc(OC)c3o2)cc1OC |  |  |  | 1280 |  | 26500 |  | Not Active | Not Active |
| COc1cc(CC/C=N/C2=C(C)C(=O)C=C(C(C)C)C2=O)cc2cc(-c3ccc4c(c3)OCO4)oc12 | 17400 | 43700 |  |  | <=104 | 1190 |  |  |  |
| CC1=CC(=O)C(C(C)C)=CC1=O [THYMOQUINONE] | 300 | 300 |  | > 10000 |  | > 80000 |  |  |  |
| COc1cc(CCCOC(=O)C[C@H]2O[C@@H]3O[C@@]4(C)CC[C@H]5[C@H](C)CC[C@@H]([C@H]2C)[C@@]35OO4)cc2cc(-c3ccc4c(c3)OCO4)oc12 | 582 | 568 |  | 240 | <=104 | 13.3 |  |  |  |
